From patent US20220096485A1, “FUNCTIONALIZED PYRANO[2,3-D]PYRIMIDIN-7-ONE DERIVATIVES AND METHODS FOR THEIR PREPARATION AND USE” (The Texas A&M University System, priority 2016, published 2022)

Biological target: Abelson kinase 2 (ABL2) (Homo sapiens, UniProt P42684)
Test: Eurofins Arg (ABL2) Human TK Kinase Binding Assay

Sequence of Abelson kinase 2 (ABL2) (P42684 whole entry): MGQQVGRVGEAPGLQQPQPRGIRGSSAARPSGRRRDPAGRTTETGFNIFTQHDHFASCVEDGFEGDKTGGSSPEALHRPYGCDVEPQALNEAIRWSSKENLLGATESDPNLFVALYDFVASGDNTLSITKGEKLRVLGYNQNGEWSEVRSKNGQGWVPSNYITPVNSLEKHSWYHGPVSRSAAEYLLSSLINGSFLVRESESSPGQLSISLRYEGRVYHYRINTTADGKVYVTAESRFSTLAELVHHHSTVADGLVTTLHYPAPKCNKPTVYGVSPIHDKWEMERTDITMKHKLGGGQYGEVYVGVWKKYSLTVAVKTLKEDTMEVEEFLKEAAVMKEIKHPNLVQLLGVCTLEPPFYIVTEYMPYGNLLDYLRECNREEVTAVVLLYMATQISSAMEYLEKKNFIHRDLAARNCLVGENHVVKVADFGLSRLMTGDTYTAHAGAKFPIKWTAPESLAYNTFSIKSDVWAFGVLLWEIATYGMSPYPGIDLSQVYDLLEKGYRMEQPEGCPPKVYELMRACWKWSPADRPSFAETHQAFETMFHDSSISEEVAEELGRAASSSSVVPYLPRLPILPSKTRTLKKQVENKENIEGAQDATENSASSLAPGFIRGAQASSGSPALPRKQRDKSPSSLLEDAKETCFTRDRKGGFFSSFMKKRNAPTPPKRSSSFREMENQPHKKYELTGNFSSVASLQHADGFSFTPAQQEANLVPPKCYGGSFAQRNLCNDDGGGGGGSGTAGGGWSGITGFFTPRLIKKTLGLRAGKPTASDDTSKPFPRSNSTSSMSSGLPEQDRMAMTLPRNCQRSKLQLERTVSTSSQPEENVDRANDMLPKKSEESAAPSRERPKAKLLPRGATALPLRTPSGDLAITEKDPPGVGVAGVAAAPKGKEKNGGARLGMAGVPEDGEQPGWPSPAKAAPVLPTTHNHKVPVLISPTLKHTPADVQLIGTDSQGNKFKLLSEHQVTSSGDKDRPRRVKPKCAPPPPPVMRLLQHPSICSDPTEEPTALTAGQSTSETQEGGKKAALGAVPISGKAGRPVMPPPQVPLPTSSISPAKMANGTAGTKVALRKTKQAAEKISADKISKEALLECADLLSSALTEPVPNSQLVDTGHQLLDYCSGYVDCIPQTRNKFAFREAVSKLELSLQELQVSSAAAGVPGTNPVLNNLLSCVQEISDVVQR

| Structure (SMILES) | Kd [nM] |
| --- | --- |
| Nc1cccc(Nc2ncc3cc(-c4c(Cl)cccc4Cl)c(=O)oc3n2)c1 [Compound 12c, 2-(3-Aminophenylamino)-6-(2,6-dichlorophenyl)-7H-pyrano[2,3-d]pyrimidin-7-one] | 1.1 |
| COc1cccc(Nc2ncc3cc(-c4c(Cl)cccc4Cl)c(=O)oc3n2)c1 [Compound 12e, 6-(2,6-Dichlorophenyl)-2-(3-methoxyphenylamino)-7H-pyrano[2,3-d]pyrimidin-7-one] | 1.3 |
| CC(=O)Nc1cccc(Nc2ncc3cc(-c4c(C)cccc4C)c(=O)oc3n2)c1 [Compound 19b, N-(3-(6-(2,6-Dimethylphenyl)-7-oxo-7H-pyrano[2,3-d]pyrimidine-2-ylamino)phenyl)-acetamide] | 1.3 |
| N#Cc1cccc(Nc2ncc3cc(-c4c(Cl)cccc4Cl)c(=O)oc3n2)c1 [Compound 12d, 3-(6-(2,6-Dichlorophenyl)-7-oxo-7H-pyrano[2,3-d]pyrimidin-2-ylamino)benzonitrile] | 4.5 |
| Cc1cc(Nc2ncc3cc(-c4c(Cl)cccc4Cl)c(=O)oc3n2)ccc1F [Compound 12a, 2-(4-Fluoro-3-methylphenylamino)-6-(2,6-dichlorophenyl)-7H-pyrano[2,3-d]pyrimidin-7-one] | 3.9 |
| CN(C)c1ccc(Nc2ncc3cc(-c4c(Cl)cccc4Cl)c(=O)oc3n2)cc1 [Compound 12f, 6-(2,6-Dichlorophenyl)-2-(4-(dimethylamino)phenylamino)-7H-pyrano[2,3-d]pyrimidine-7-one] | 6.9 |
| Cc1cccc(C)c1-c1cc2cnc(Nc3cccc(N)c3)nc2oc1=O [Compound 19a, 2-(3-Aminophenylamino)-6-(2,6-dimethylphenyl)-7H-pyrano[2,3-d]pyrimidine-7-one] | 1.3 |
| CC(=O)Nc1cccc(Nc2ncc3cc(-c4c(Cl)cccc4Cl)c(=O)oc3n2)c1 [Compound 12g, N-(3-(6-(2,6-Dichlorophenyl)-7-oxo-7H-pyrano[2,3-d]pyrimidine-2-ylamino)-phenyl)-acetamide] | 1.1 |
| Nc1cccc(Nc2ncc3cc(-c4ccccc4)c(=O)oc3n2)c1 [Compound 19c, 2-(3-Aminophenylamino)-6-phenyl-7H-pyrano[2,3-d]pyrimidin-7-one] | 130 |
| CSc1cccc(Nc2ncc3cc(-c4c(Cl)cccc4Cl)c(=O)oc3n2)c1 [Compound 12b, 2-(3-(Methylthio)phenylamino)-6-(2,6-dichlorophenyl)-7H-pyrano[2,3-d]pyrimidin-7-one] | 3.8 |
